# How the values were obtained:
# tumor cells = assay: Premature chromosome condensation (PCC) induction, cells not specified; type: cell-based; conditions: co-treatment with Lasonolide A
# Method: (§1) Burkitt's Lymphoma CA46 cells (500,000) (FIG. 1B) or breast cancer MDA-MB-231 cells (500,000) (FIG. 1A) were treated by 100 nM Lasonolide A (stock solution 100 μM in DMSO) for 1 h. Lymphocytes were treated with 200 nM Lasonolide A for 1 h. Cells were harvested with centrifuging on 2,000 rpm for 5 min at 4° C. Pellets were washed once by PBS and re-suspended in 1 mL PBS. 200 μL cells mixture were added to the chamber for cytospining. Cells were cytospun on 800 rpm for 10 min; slides were fixed in fresh-made 4% paraformaldehyde fixation for 20 min at room temperature, then moved to 70% ethanol for 20 min. Slides were stained with Propidium Iodide (“PI”) (20 μg/mL) and RNase A (100 μg/mL) for 15 min. Slides were washed with PBS for three times and mounted with Vectashield anti-fade mounting media (Vector Laboratories, Inc., Burlingame, Calif.). Images were taken using a Nikon Eclipse TE-300 confocal microscope.
# human lymphocytes = assay: PCC induction and PI staining; type: cell-based; conditions: 1 μM OA, without additional reagents
# [1] = test system: Burkitt's Lymphoma CA46 cells; assay: PCC induction and PI staining; type: cell-based, human; conditions: 1 μM OA, 1 h
# Method: as §1
SMILES,effect of the added inhibitor on PCC induction by Lasonolide A (tumor cells),lymphocytes going to PCC (human lymphocytes),cells with premature chromosome condensation (PCC) [1]
CN1CC[C@H](c2c(O)cc(O)c3c(=O)cc(-c4ccccc4Cl)oc23)[C@H](O)C1 [Flavorpiridol],could not influence the PCC induction,–,–
C[C@@H](CN1CC(=O)NC(=O)C1)N1CC(=O)NC(=O)C1 [ICRF187],changed the pattern of PCC,–,–
"C=C1[C@@H](O)[C@@H]2O[C@]3(CC[C@H](/C=C/[C@@H](C)[C@@H]4CC(C)=C[C@@]5(O[C@H](C[C@@](C)(O)C(=O)O)CC[C@H]5O)O4)O3)CC[C@H]2O[C@@H]1[C@@H](O)C[C@H](C)[C@H]1O[C@@]2(CCCCO2)CC[C@H]1C [OA, Okadaic Acid, reference compound]",–,1.7%,31%
CC[C@H](CO)Nc1nc(NCc2ccccc2)c2ncn(C(C)C)c2n1 [Roscovitine],could not influence the PCC induction,–,–
C[C@@]1(CO)[C@H](O)CC[C@@]2(C)[C@H]1CC[C@H]1C[C@@H]3C[C@@]12CC[C@]3(O)CO [aphidicolin],had no effect on PCC induction,–,–
